# Source: patent US7858105B2, “Inhibitors of melanocyte tyrosinase as topical skin lighteners” (Mediquest Therapeutics, Inc., priority 2000, dated 2010)
# Read-outs that look alike come from different tables or passages of the source.
# Key:
# [1] = compared with HQ; cited from earlier work
# Mel-Ab melanocytes [2] = assay: mammalian-melanocyte-culture toxicity assay system; format: cell-based, mouse; settings: read-out: T: concentration of compound that kills 50% of cells in the mammalian-melanocyte-culture toxicity assay system
# Excerpt: (§1) In the present invention, one or all of three in vitro bioassays can be utilized to evaluate the efficacy and toxicity of candidate skin-lightening compounds. The three bioassays characterize the compounds with regard to mammalian tyrosinase enzyme inhibition (cell free), pigmentation in melanocyte cultured cells, and cytotoxicity of mammalian cultured cells. Both cell-based pigmentation and cell-free enzymatic assays have been developed using the mammalian melanocyte cell line, Mel-Ab, a C57BL/6 mouse-derived cell line that produces high levels of melanin. A distinct advantage of this approach is that humans share substantial sequence similarities in their genes (DNA) and proteins (such as tyrosinase) with mice, relative to non-mammalian species (e.g., mushrooms). So, mouse Mel-Ab melanocytes can serve as adequate surrogates for human melanocytes for many pharmacologic purposes.
# [6] It should be noted that many inhibitors identified in cell-free enzymatic assays might have subsequent difficulties with toxicity or delivery in melanocyte cell-based assays. Therefore, all three in vitro assays in combination provide an excellent characterization of candidate skin lightening compounds.
# (§2) A first class of compounds based upon the template compound benzimidazolethiol (lower left structure) were tested for tyrosinase inhibition, cell culture pigment inhibition, and toxicity, by methods described in Curto, E. V., et al. (1999).
# Mel-Ab melanocytes [3] = assay: mammalian-melanocyte-culture pigment assay system; format: cell-based, mouse; settings: read-out: P: concentration of compound that produces 50% inhibition in the mammalian-melanocyte-culture pigment assay system
# Excerpt: as §1
# (§3) These adherent murine melanocytes are grown on tissue culture plastic in medium supplemented with fetal bovine serum, 12-O-tetradecanoylphorbol-13-acetate (TPA) to stimulate cell division via down-regulation of protein kinase C, [22, 23] and cholera toxin to stimulate adenylate cyclase activity in the absence of α-MSH. Cellular lysates of Mel-Ab cells may be used as tyrosinase enzyme preparations. Multi-well plate assays have been validated for enzyme inhibition (e.g., DOPA oxidation by colorimetric measurement or radiolabeled substrate incorporation into melanin) and for pigmentation assays on cultured Mel-Ab cells. After 4 days of treatment of cultured cells, melanin content is determined using a spectrophotometer at 400+ nm. This assay can detect an apparent loss in pigmentation resulting from either inhibition of de novo synthesis (e.g. via inhibition of tyrosinase, or the adenylate cyclase pathway, or another pathway) or a cytostatic/cytotoxic mechanism. It is therefore a broad primary screen. It is used in parallel with the tyrosinase enzymatic assay to determine whether an inhibitor of pigmentation at the cellular level is acting primarily at the enzyme level.
# as §2
# mammalian tyrosinase [4] = target: T1, mammalian tyrosinase (Mus musculus, UniProt P11344); assay: cell-free mammalian-enzyme assay system (tyrosinase inhibition, Mel-Ab cell lysates); format: biochemical; settings: read-out: E: concentration of compound that produces 50% pigment inhibition in the cell-free mammalian-enzyme assay system
# T1 construct: Cellular lysates of Mel-Ab cells may be used as tyrosinase enzyme preparations; endogenous in cells; host or cells: Mel-Ab mouse melanocytes (C57BL/6-derived), cell lysate
# T1 sequence (P11344 19-533): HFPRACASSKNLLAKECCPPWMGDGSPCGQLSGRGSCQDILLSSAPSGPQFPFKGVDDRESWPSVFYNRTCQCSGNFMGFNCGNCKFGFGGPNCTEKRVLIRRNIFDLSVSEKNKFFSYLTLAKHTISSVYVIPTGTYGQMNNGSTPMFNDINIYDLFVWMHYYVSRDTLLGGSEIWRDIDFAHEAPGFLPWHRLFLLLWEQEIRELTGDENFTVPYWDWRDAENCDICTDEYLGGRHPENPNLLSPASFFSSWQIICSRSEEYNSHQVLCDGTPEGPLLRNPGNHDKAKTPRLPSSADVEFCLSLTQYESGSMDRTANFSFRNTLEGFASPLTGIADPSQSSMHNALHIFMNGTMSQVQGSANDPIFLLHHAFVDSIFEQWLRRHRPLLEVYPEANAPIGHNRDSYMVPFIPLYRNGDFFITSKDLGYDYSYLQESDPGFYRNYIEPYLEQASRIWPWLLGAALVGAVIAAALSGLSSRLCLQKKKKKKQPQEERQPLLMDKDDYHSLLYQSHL
# Excerpt: as §1, §3
# A distinct advantage of the screening systems (developed by the inventors of the present invention) is the focus on mammalian tyrosinase, as opposed to non-mammalian enzymes often used by other investigators, such as mushroom tyrosinase. Since the biochemical and pharmacologic characteristics of an enzyme or isozyme can vary dramatically between species of organisms (e.g., due to dissimilarities in primary, secondary, and tertiary structure), it is highly preferable that candidate topical skin lighteners intended for human use be discovered based on their biochemical action against a mammalian source of the enzyme. Mushroom tyrosinase (and in some instances plant polyphenol oxidases) has been used in the vast majority of prior inhibitor studies. […] Thus, the methods reported by the inventors of the present invention for screening against mammalian tyrosinase or within melanocytes is highly preferred over other possible screening strategies.
# The substrate kinetic “affinity” of mammalian tyrosinase for L-tyrosine is approximately KM=600 μM. A potentially effective candidate skin lightening agent is considered to be desirable, active, and/or functional if it renders 50% inhibition of mammalian tyrosinase enzyme activity, at concentrations below half the enzyme's “affinity” for tyrosine in cell-free enzyme extracts (IC50≦300 μM) and pigment production in melanocyte cell cultures (IC50≦300 μM).
# as §2
# [5] = UV absorbance: extinction coefficient at wavelength of maximum absorbency; format: physicochemical; settings: for compound extinction coefficient ε: at λmax
# [6] = test system: Chinese hamster V79 cells; settings: cited from earlier work
# Salmonella = settings: cited from earlier work
# Mel-Ab melanocytes [7] = settings: cited from earlier work
# Mel-Ab melanocytes [8] = settings: cited from earlier work; remark: listed apart in the source
# mammalian tyrosinase [9] = target: T1, mammalian tyrosinase; settings: cited from earlier work
smiles,measurement,setting,value
"O=C(O)c1cc(O)ccc1O [GA, 2,5-dihydroxybenzoic acid]",mutagenic activity,[1],lacking the mutagenic activity
COc1ccc(N)cc1OC [ID # 006],IC50,"Mel-Ab melanocytes [2]; Mus musculus, Mel-Ab",> 1000 µM
same,IC50,"Mel-Ab melanocytes [3]; Mus musculus, Mel-Ab",182 µM
same,IC50,mammalian tyrosinase [4],110 µM
Oc1ccc2c(c1)OCO2 [ID # 009],IC50,"Mel-Ab melanocytes [2]; Mus musculus, Mel-Ab",775 µM
same,IC50,"Mel-Ab melanocytes [3]; Mus musculus, Mel-Ab",209 µM
same,IC50,mammalian tyrosinase [4],98 µM
Oc1ccc2[nH]ccc2c1 [ID # 026],IC50,"Mel-Ab melanocytes [2]; Mus musculus, Mel-Ab",367 µM
same,IC50,"Mel-Ab melanocytes [3]; Mus musculus, Mel-Ab",153 µM
same,IC50,mammalian tyrosinase [4],54 µM
NC(=S)Nc1ccccc1 [ID # 033],IC50,"Mel-Ab melanocytes [2]; Mus musculus, Mel-Ab",> 1000 µM
same,IC50,"Mel-Ab melanocytes [3]; Mus musculus, Mel-Ab",12 µM
same,IC50,mammalian tyrosinase [4],2 µM
Sc1nc2ccccc2s1 [ID # 040],IC50,mammalian tyrosinase [4],8 µM
CC(=S)Nc1ccccc1 [ID # 054],IC50,"Mel-Ab melanocytes [2]; Mus musculus, Mel-Ab",> 1000 µM
same,IC50,"Mel-Ab melanocytes [3]; Mus musculus, Mel-Ab",16 µM
same,IC50,mammalian tyrosinase [4],16 µM
NCCc1cccs1 [ID # 073],IC50,"Mel-Ab melanocytes [2]; Mus musculus, Mel-Ab",> 1000 µM
same,IC50,"Mel-Ab melanocytes [3]; Mus musculus, Mel-Ab",100 µM
same,IC50,mammalian tyrosinase [4],> 1000 µM
Nc1ccc2c(c1)CCC2 [ID # 079],IC50,"Mel-Ab melanocytes [2]; Mus musculus, Mel-Ab",472 µM
same,IC50,"Mel-Ab melanocytes [3]; Mus musculus, Mel-Ab",71 µM
same,IC50,mammalian tyrosinase [4],73 µM
COc1ccc(CS)cc1 [ID # 082],IC50,"Mel-Ab melanocytes [2]; Mus musculus, Mel-Ab",500 µM
same,IC50,"Mel-Ab melanocytes [3]; Mus musculus, Mel-Ab",81 µM
same,wavelength of maximum absorbency λmax,[5],275 nm
same,compound extinction coefficient ε,[5],1000 OD/M × cm
same,IC50,mammalian tyrosinase [4],5 µM
CC(=O)Nc1ccc(S)cc1 [ID # 083],IC50,"Mel-Ab melanocytes [2]; Mus musculus, Mel-Ab",542 µM
same,IC50,"Mel-Ab melanocytes [3]; Mus musculus, Mel-Ab",82 µM
same,wavelength of maximum absorbency λmax,[5],265 nm
same,compound extinction coefficient ε,[5],4700 OD/M × cm
same,IC50,mammalian tyrosinase [4],19 µM
COc1cccc2[nH]c(S)nc12 [ID # 084],IC50,Mel-Ab melanocytes [2],> 1000 µM
same,IC50,Mel-Ab melanocytes [3],1.6 µM
same,wavelength of maximum absorbency λmax,[5],310 nm
same,compound extinction coefficient ε,[5],10000 OD/M × cm
same,IC50,mammalian tyrosinase [4],0.07 µM
CCOc1ccc2nc(S)sc2c1 [ID # 091],IC50,Mel-Ab melanocytes [2],> 1000 µM
same,IC50,Mel-Ab melanocytes [3],> 1000 µM
same,IC50,mammalian tyrosinase [4],> 1000 µM
COC(=O)c1cccc(N)c1 [ID # 092],IC50,"Mel-Ab melanocytes [2]; Mus musculus, Mel-Ab",> 1000 µM
same,IC50,"Mel-Ab melanocytes [3]; Mus musculus, Mel-Ab",236 µM
same,IC50,mammalian tyrosinase [4],79 µM
COc1ccc(OC)c(S)c1 [ID # 093],IC50,Mel-Ab melanocytes [2],200 µM
same,IC50,Mel-Ab melanocytes [3],200 µM
same,wavelength of maximum absorbency λmax,[5],305 nm
same,compound extinction coefficient ε,[5],2700 OD/M × cm
same,IC50,mammalian tyrosinase [4],500 µM
[Se]=c1[nH]c2ccccc2[nH]1 [ID # 098],IC50,Mel-Ab melanocytes [2],132 µM
same,IC50,Mel-Ab melanocytes [3],14 µM
same,IC50,mammalian tyrosinase [4],0.8 µM
COc1cccc(S)c1 [ID # 099],IC50,"Mel-Ab melanocytes [2]; Mus musculus, Mel-Ab",202 µM
same,IC50,"Mel-Ab melanocytes [3]; Mus musculus, Mel-Ab",85 µM
same,wavelength of maximum absorbency λmax,[5],265 nm
same,compound extinction coefficient ε,[5],3000 OD/M × cm
same,IC50,mammalian tyrosinase [4],53 µM
COc1ccc(C(N)=S)cc1 [ID # 100],IC50,"Mel-Ab melanocytes [2]; Mus musculus, Mel-Ab",> 1000 µM
same,IC50,"Mel-Ab melanocytes [3]; Mus musculus, Mel-Ab",62 µM
same,IC50,mammalian tyrosinase [4],32 µM
CSc1ccc(S)cc1 [ID # 102],IC50,"Mel-Ab melanocytes [2]; Mus musculus, Mel-Ab",126 µM
same,IC50,"Mel-Ab melanocytes [3]; Mus musculus, Mel-Ab",115 µM
same,wavelength of maximum absorbency λmax,[5],280 nm
same,compound extinction coefficient ε,[5],2300 OD/M × cm
same,IC50,mammalian tyrosinase [4],0.24 µM
COc1ccc(S)cc1OC [ID # 103],IC50,"Mel-Ab melanocytes [2]; Mus musculus, Mel-Ab",> 1000 µM
same,IC50,"Mel-Ab melanocytes [3]; Mus musculus, Mel-Ab",8 µM
same,wavelength of maximum absorbency λmax,[5],250 nm
same,compound extinction coefficient ε,[5],4300 OD/M × cm
same,IC50,mammalian tyrosinase [4],8 µM
S=c1[nH]c2cccnc2[nH]1 [ID # 135],IC50,Mel-Ab melanocytes [2],> 1000 µM
same,IC50,Mel-Ab melanocytes [3],256 µM
same,IC50,mammalian tyrosinase [4],4 µM
Sc1nc2ccccc2[nH]1 [ID # 138],wavelength of maximum absorbency λmax,[5],300 nm
same,compound extinction coefficient ε,[5],14300 OD/M × cm
same,IC50,mammalian tyrosinase [4],0.25 µM
Cc1cccc2[nH]c(S)nc12 [ID # 140],IC50,Mel-Ab melanocytes [2],> 1000 µM
same,IC50,Mel-Ab melanocytes [3],2.4 µM
same,wavelength of maximum absorbency λmax,[5],305 nm
same,compound extinction coefficient ε,[5],6300 OD/M × cm
same,IC50,mammalian tyrosinase [4],0.12 µM
CC(=O)Nc1ccc(SC(C)=O)cc1 [ID # 148],IC50,Mel-Ab melanocytes [2],125 µM
same,IC50,Mel-Ab melanocytes [3],30 µM
same,wavelength of maximum absorbency λmax,[5],255 nm
same,compound extinction coefficient ε,[5],3300 OD/M × cm
same,IC50,mammalian tyrosinase [4],500 µM
CC(=O)n1c(=S)[nH]c2ccccc21 [ID # 205],IC50,"Mel-Ab melanocytes [2]; Mus musculus, Mel-Ab",35 µM
same,IC50,"Mel-Ab melanocytes [3]; Mus musculus, Mel-Ab",8.3 µM
same,IC50,mammalian tyrosinase [4],0.5 µM
Oc1ccc(O)cc1 [hydroquinone],mutagenicity in mammalian Chinese hamster V79 cells,[6],mutagenic
same,mutagenicity in Salmonella,Salmonella,mutagenic
same,cytotoxicity to cultured mammalian melanocytes (in words),Mel-Ab melanocytes [7],potent cytotoxicity
same,cytotoxicity to cultured mammalian melanocytes (in words),Mel-Ab melanocytes [7]; listed as HQ,cytotoxic
same,IC50 on Mel-Ab culture,"Mel-Ab melanocytes [8]; positive control, owing to cytotoxicity, not inhibition of pigmentation per se",low micrograms per milliliter range
same,inhibition of the mammalian tyrosinase enzyme (in words),mammalian tyrosinase [9],minimal enzymatic inhibition
same,inhibition of the mammalian tyrosinase enzyme (in words),mammalian tyrosinase [9]; listed as HQ,not an effective inhibitor
COC(=O)c1cc(O)ccc1O [methyl gentisate],mutagenic activity,[1],lacking the mutagenic activity
same,melanocyte cytotoxicity IC50,Mel-Ab melanocytes [7]; Curto et al. (1999),118.7 ± 12 µg/mL
same,IC50 in melanocyte cell cultures,Mel-Ab melanocytes [8]; Curto et al. (1999),30.9 ± 5 µg/mL
same,inhibition of melanin accumulation (in words),Mel-Ab melanocytes [8]; murine melanocyte cell culture primary screen,moderately potent inhibitor
same,IC50 against tyrosinase activity in cell-free assays,mammalian tyrosinase [9]; Curto et al. (1999),11.2 ± 4 µg/mL
